Marks after values point to notes of the source that are not given here.

The results in this text go back to publication PMC9821843, “Powerful Potential of Polyfluoroalkyl-Containing 4-Arylhydrazinylidenepyrazol-3-ones for Pharmaceuticals” (Molecules, 2022).

Data set [1] deals with porcine liver carboxylesterase (CES, EC 3.1.1.1) (Sus scrofa, UniProt Q29550). Put plainly: Porcine liver CES inhibition kinetics (Lineweaver-Burk). Type of data set: biochemical. The following applies: mixed type inhibition; mean ± SEM. The procedure:
To elucidate the inhibition mechanisms for active compounds, porcine liver CES residual activities were determined in the presence of 3 increasing concentrations of a test compound and 5–6 decreasing concentrations of the substrates. Test compounds were incubated with the enzymes at 25 °C for 5 min, followed by the addition of substrates. A parallel control was made for an assay of the rate of hydrolysis of the same concentrations of substrates in solutions with no inhibitor. Linear regression of 1/V versus 1/[S] double-reciprocal (Lineweaver-Burk) plots was used to determine the inhibition constants for the competitive component (Ki) and noncompetitive component (αKi).
Measurements were performed in a Bio-Rad Benchmark Plus microplate reader. Each experiment was performed in triplicate. Plots, linear regressions and values of IC50, were determined using Origin 6.1 for Windows, OriginLab (Northampton, MA, USA). Results were calculated using GraphPad Prism version 6.05 for Windows, GraphPad Software (La Jolla, CA, USA) and presented as mean ± SEM.

A short description of data set [2]: Ferric reducing antioxidant power (FRAP) assay. The following applies: 20 μM; n.a. = inactive. The text has this: The FRAP assay measures the ability of anti-oxidants to reduce the ferric 2,4,6-tripyridyl-s-triazine complex [Fe(TPTZ)2]^3+ to the intensely blue ferrous colored complex [Fe(TPTZ)2]^2+ with an absorption maximum at λ = 593 nm. The reducing ability of a compound is an indicator of its potential anti-oxidant activity. 2,4,6-Tris(pyridin-2-yl)-1,3,5-triazine (TPTZ), FeCl3·6H2O, Trolox and DMSO were obtained from Sigma-Aldrich Chemical Co (St. Louis, MO, USA).
The ferric reducing ability of the compounds was determined by the method in microplate adapted version described in [116]. The FRAP reagent was prepared by mixing acetate buffer (0.3 M, pH 3.6), TPTZ (10 mM in 40 mM HCl) and FeCl3·6H2O (20 mM in distilled water) in a ratio of 10:1:1 immediately before use. Compounds were dissolved in DMSO and tested in the concentration 20 μM. The solvent content in the reaction mixture was 4% (v/v). The test compounds (10 μL of 0.5 mM solution) were added to the FRAP reagent solution (240 μL) and mixed thoroughly. The reaction was carried out at 37 °C in the dark; the incubation time was 1 h. The absorbance at 600 nm was monitored spectrophotometrically by a FLUOStar OPTIMA microplate reader (BMG Labtech, Ortenberg, Germany) at 37 °C. Trolox was used as a reference compound. Values were obtained from four replicates of each sample in three independent experiments.
The ferric reducing ability of compounds was expressed as TE units (antioxidant activity in Trolox equivalent), the values calculated as the ratio of the concentrations of Trolox and the test compound resulting in the same effect. The calculations were carried out using Origin 6.1 for Windows. Results were presented as mean ± SEM, calculated using GraphPad Prism version 6.05 for Windows, GraphPad Software.

For data set [3], the system named is Vero cells. Put plainly: Live cell visualization (fluorescent staining, confocal microscopy). Type of data set: cell-based, African green monkey. The following applies: 1 × 10^–4 M, laser excitation. The source says:
Tartrazine, having 4-(4-sulfonatophenylazo)-5-pyrazolone moiety, is widely used as a synthetic lemon-yellow azo dye for food coloring. Many reports about the pyrazolone-based dyes for different purposes have been published to date. However, there are no reports describing 4-AHPs’ use for the biovisualization of living cells. In this work, we studied the potential of compounds 5f, 6a, 9a for the fluorescent visualization of the Vero cell structure (African green monkey kidney epithelium). Cells stained with the compound at a concentration of 1 × 10^–4 M in DMEM were examined using an LSM-710 laser scanning confocal microscope.
The suitability of substances for fluorescent imaging of cellular structures was studied on Vero cell culture (African green monkey kidney epithelium) and CHO (Chinese hamster ovary). The culture is supported in DMEM (Gibco, Uoltem, USA) with addition of 10% fetal bovine serum (Gibco, Uoltem, USA) and a mixture of gentamicin and streptomycin (Biolot, Moscow, Russia).
The cells were cultivated into specialized Petri dishes with a glass bottom for staining. Staining was carried out with substances at a concentration of 1 × 10^–4 M. For that, the solution of substances was preliminarily diluted with DMSO (Biolot, Moscow, Russia) to a concentration of 1 × 10^–3 M and then with DMEM to the required concentration. Incubation with the substance was carried out for half an hour in an incubator, in the dark at a temperature of 37 °C. […]
The stained cells with the substance were examined using an LSM-710 laser scanning confocal microscope (Carl Zeiss, Oberkochen, Germany). […] Fluorescence was excited by lasers with different wavelengths and registered in lambda mode. This mode gets to collect a full spectrum image by analyzing the intensity of fluorescence in different ranges. […] Taking images in this mode also makes it possible to obtain the fluorescence spectrum of the test substance in the cell. However, a confocal microscope is not a spectrofluorometer and the resulting spectra can have very poor quality, especially at low fluorescence intensity.

Data set [4] concerns Sprague-Dawley rats. Description: Carrageenan-induced paw edema model (anti-inflammatory activity). Type of data set: in vivo. The following applies: ip. The procedure:
Anti-inflammatory activity was studied in Sprague-Dawley rats (3 male and 3 female animals per group) by using the common carrageenan-induced paw edema model. The investigated compounds in 1% starch mucilage were intraperitoneally administered at the corresponding dose to a treated group of rodents 30 min before the injection of 0.1 mL of freshly prepared 1% carrageenan (λ-carrageenan, type IV; Sigma Aldrich, an affiliate of Merck KGaA, Darmstadt, Germany) solution in the right hind paw plantar surface. The negative control group was treated with 1% starch mucilage solution only. Diclofenac sodium (10 mg/kg in 1% starch mucilage solution) was used as a reference drug. Paw volumes were measured oncometrically with water plethysmometer (TSE Volume Meter, Bad Homburg, Germany) before carrageenan administration (“zero time”) and at 1st, 3rd, 5th and 24th h after its injection. An anti-inflammatory activity of the sample at a certain time point was calculated in two steps. First, the percentage of an edema increment (i.e., relative volume change for the inflamed paw vs. “zero time” value) both in the negative control group (Pc) and in the treated group (Ptr) were calculated for this time point for each animal. The difference between treated and control group was considered significant at p < 0.05. Then, for such cases, swelling inhibition was calculated according to the formula: 100% (Pc − Ptr)/Pc and considered as a measure of anti-inflammatory activity of the sample.
A general note: In the carrageenan paw model, swelling and tenderness develop within hours.

Chain of porcine liver carboxylesterase (CES, EC 3.1.1.1) (Q29550 19-566): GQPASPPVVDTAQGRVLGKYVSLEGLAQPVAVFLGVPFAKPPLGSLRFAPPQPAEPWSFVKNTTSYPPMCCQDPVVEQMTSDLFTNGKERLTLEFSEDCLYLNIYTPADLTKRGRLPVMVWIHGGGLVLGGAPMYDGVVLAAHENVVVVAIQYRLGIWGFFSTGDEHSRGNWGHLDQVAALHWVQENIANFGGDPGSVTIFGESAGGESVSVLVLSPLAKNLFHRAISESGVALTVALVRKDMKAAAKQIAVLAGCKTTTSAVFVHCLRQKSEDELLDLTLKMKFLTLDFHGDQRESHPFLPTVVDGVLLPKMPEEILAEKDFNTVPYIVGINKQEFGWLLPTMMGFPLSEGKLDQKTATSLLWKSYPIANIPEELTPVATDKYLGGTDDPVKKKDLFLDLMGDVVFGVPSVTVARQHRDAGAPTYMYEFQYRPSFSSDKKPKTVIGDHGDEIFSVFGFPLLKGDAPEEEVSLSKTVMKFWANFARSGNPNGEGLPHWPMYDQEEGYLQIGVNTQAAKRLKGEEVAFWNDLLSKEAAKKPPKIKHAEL

For `O=C1NN=C(C(F)(F)F)/C1=N/Nc1ccccc1` [5a, (Z)-4-(2-Phenylhydrazinylidene)-5-(trifluoromethyl)-2,4-dihydro-3H-pyrazol-3-one], in data set [1], the “αKi (non-competitive inhibition constant), CES” value was determined as 0.255 ± 0.013 µM. In addition, the “FRAP (TE, antioxidant activity in Trolox equivalents)” value (“FRAP” for short) in data set [2] stood at 0.09 ± 0.01.
As for `Cc1ccc(N/N=C2\C(=O)NN=C2C(F)(F)F)cc1` [5b, (4Z)-4-[2-(4-Methylphenyl)hydrazinylidene]-5-(trifluoromethyl)-2,4-dihydro-3H-pyrazol-3-one], the “FRAP” value in data set [2] came to 0.05 ± 0.02.
Regarding `Cc1ccc(N/N=C2\C(=O)N(C)N=C2C(F)(F)F)cc1` [5d, (4Z)-2-Methyl-4-[2-(4-methylphenyl)hydrazinylidene]-5-(trifluoromethyl)-2,4-dihydro-3H-pyrazol-3-one], in data set [1], the “αKi (non-competitive inhibition constant), CES” value was found to be 3.98 ± 0.31 µM.
Take `Cc1ccc(N/N=C2\C(=O)N(c3ccccc3)N=C2C(F)(F)F)cc1` [5f, (4Z)-4-[2-(4-Methylphenyl)hydrazinylidene]-2-phenyl-5-(trifluoromethyl)-2,4-dihydro-3H-pyrazol-3-one]: the “αKi (non-competitive inhibition constant), CES” value in data set [1] was determined as 0.735 ± 0.007 µM. Besides, the “acute phototoxicity during cell visualization” value in data set [3] is “No acute phototoxicity”. For the same molecule, the “Inhibition of Paw Edema Development Comparing to Control, after 5 h” value in data set [4] (dose 15 mg/kg, n.a. = inactive) is reported as 30.9 * %.
As for `CS(=O)(=O)c1ccc(N/N=C2\C(=O)N(c3ccccc3)N=C2C(F)(F)F)cc1` [5m, (4Z)-4-(2-[4-(Methylsulfonyl)phenyl]hydrazinylidene)-2-phenyl-5-(trifluoromethyl)-2,4-dihydro-3H-pyrazol-3-one], in data set [4] (dose 25 mg/kg), the “Inhibition of Paw Edema Development Comparing to Control, after 1 h” value is 49.0 ** %; the “Inhibition of Paw Edema Development Comparing to Control, after 3 h” value is reported as 44.3 * %; the “Inhibition of Paw Edema Development Comparing to Control, after 5 h” value is listed as 35.3 * %.
Regarding `Cc1ccc(N/N=C2\C(=O)NN=C2C(F)(F)C(F)(F)F)cc1` [6a, (4Z)-4-[2-(4-Methylphenyl)hydrazinylidene]-5-(pentafluoroethyl)-2,4-dihydro-3H-pyrazol-3-one], the “acute phototoxicity during cell visualization” value in data set [3] is “No acute phototoxicity”. Moreover, the “FRAP” value in data set [2] was 0.15 ± 0.02.
Regarding `CC1=NNC(=O)/C1=N\Nc1ccc(C)cc1` [9a, (4Z)-5-Methyl-4-[2-(4-methylphenyl)hydrazinylidene]-2,4-dihydro-3H-pyrazol-3-one], the “acute phototoxicity during cell visualization” value in data set [3] is reported as “No acute phototoxicity”. Also, in data set [2], the “FRAP” value is given as 0.51 ± 0.01.
With `CC1=NN(c2ccccc2)C(=O)/C1=N\Nc1ccc(C)cc1` [9b, (4Z)-5-Methyl-4-[2-(4-methylphenyl)hydrazinylidene]-2-phenyl-2,4-dihydro-3H-pyrazol-3-one], the “FRAP” value in data set [2] turned out to be 0.11 ± 0.01.
